# In paper PMC6820371, “Terbium-161 for PSMA-targeted radionuclide therapy of prostate cancer” (European Journal of Nuclear Medicine and Molecular Imaging, 2019):
# Columns and labels:
# [1] = tested on: PC-3 PIP tumor cells; assay: Cell survival assay (clonogenic assay); assay type: cell-based, human; conditions: DTPA complexes, 0.01–10 MBq/mL; marginal reduction at higher concentration
# [2] = tested on: PC-3 PIP tumor cells; assay: Cell viability assay (MTT assay); assay type: cell-based, human; conditions: DTPA complexes, 0.01–20 MBq/mL; marginal reduction at higher concentration
# Procedure: The detailed methods of these studies, including dosimetric calculations, are described in the Supplementary material. The results were analyzed for statistical significance by a two-way ANOVA with Sidak’s multiple comparison post-test using Graph Pad Prism (version 7).
# Methods: Tumor cell viability was assessed using a 3-(4,5-dimethylthiazol-2-yl)-2,5-diphenyltetrazolium bromide (MTT) assay as described by Mosmann. PC-3 PIP tumor cells (2500 cells in 200 μL RPMI medium with supplements) were seeded in 96-well plates and incubated overnight (37°C; 5% CO2) to allow adhesion of the tumor cells. The supernatants were removed and the tumor cells were washed once with 200 μL PBS. Afterwards, the tumor cells were incubated in 200 μL RPMI medium (without supplements) containing ^161Tb-PSMA-617 or ^177Lu-PSMA-617 (0.01‒20 MBq/mL), respectively, or just RPMI medium without addition of radioligands. PSMA-negative PC-3 flu tumor cells were also treated with these radioligands under the same experimental conditions using the same concentration range. Additional cell viability assays were performed with PC-3 PIP tumor cells incubated with RPMI medium (without supplements) containing ^161Tb-diethylenetriaminepentaacetic acid (DPTA) or ^177Lu-DTPA (0.01 – 20 MBq/mL). After 4 h incubation (37 °C; 5% CO2), the tumor cells were washed once with 200 μL PBS, followed by the addition of 200 μL of RPMI medium (with supplements) to each well. The tumor cells were left to grow for 6 days under standard cell culture conditions (37 °C, 5% CO2). At Day 6 after treatment, MTT reagent (5 mg/mL in PBS, 30 μL per well) was added to each well to allow the formation of dark-violet formazan crystals within 4 h incubation. The crystals were dissolved by the addition of dimethyl sulfoxide to determine the absorbance at 560 nm using a microplate reader (Victor X3, Perkin Elmer). Cell viability was quantified by expressing the absorbance of the test samples as percentage of the absorbance of control (untreated) cell samples which was set to 100%. Statistical analysis was performed using a two-way ANOVA with Sidak’s multiple comparison post-test in Graph Pad Prism (version 7).
# [3] = tested on: mice inoculated with PC-3 PIP cells; assay: Additional therapy study (injection 2 days after tumor cell inoculation); assay type: in vivo; conditions: for Median Survival: control 26 days
# Procedure: The day of the treatment, two days after tumor cell inoculation, was defined as Day 0 of the study (Table S7).
# Endpoint criteria: The mice were monitored until they reached an endpoint (definition of endpoints, see Chapter 13) or over the whole period of 38 days when the study was terminated.
# Data analysis of the therapy study: The tumor growth delay indices (TGDI2 and TGDI5) were calculated as reported in the Methods of the main manuscript. The median survival was determined using GraphPad Prism software (version 7).
# [4] = tested on: PSMA-positive PC-3 PIP tumor cells; assay: Tumor cell uptake and internalization; assay type: cell-based, human; conditions: 2–4 h incubation
# [5] = tested on: PSMA-negative PC-3 flu tumor cells; assay: Tumor cell uptake and internalization; assay type: cell-based; conditions: 2–4 h incubation
# [6] = design: method as in Benešová et al. [4]; conditions: PBS pH 7.4; ref Benešová et al. [4]; cited from earlier work
# [7] = design: method as in Benešová et al. 2018 [4]; conditions: saline, in the presence of l-ascorbic acid, up to 24 h; ref Benešová et al. 2018 [4]; cited from earlier work
# [8] = tested on: PC-3 PIP tumor-bearing mice; design: method as in PMID 29684274; conditions: 5.0 MBq; cited from earlier work
smiles,measurement,setting,value
"O=C([O-])CN(CCN(CC(=O)[O-])CC(=O)[O-])CCN(CC(=O)[O-])CC(=O)[O-].[177Lu+3] [^177Lu-DTPA, reference compound]",Survival of PC-3 PIP tumor cells,[1],not affected
same,Viability of PC-3 PIP tumor cells,[2],not affected
"O=C([O-])CN1CCN(CC(=O)[O-])CCN(CC(=O)NCC2CCC(C(=O)N[C@@H](Cc3ccc4ccccc4c3)C(=O)NCCCC[C@H](NC(=O)N[C@@H](CCC(=O)O)C(=O)O)C(=O)O)CC2)CCN(CC(=O)[O-])CC1.[177Lu+3] (stereo partly shown) [^177Lu-PSMA-617, reference compound]",First mouse euthanized,[3]; 2.5 MBq,20 days
same,TGDI2,[3]; 2.5 MBq,0.8 ± 0.4
same,TGDI5,[3]; 2.5 MBq,1.0 ± 0.3
same,Median Survival,[3]; 2.5 MBq,27 days
same,Last mouse euthanized,"[3]; 2.5 MBq, study end Day 38",study end
same,First mouse euthanized,[3]; 5.0 MBq,24 days
same,TGDI2,[3]; 5.0 MBq,1.0 ± 0.4
same,Median Survival,[3]; 5.0 MBq,30 days
same,Last mouse euthanized,"[3]; 5.0 MBq, study end Day 38",study end
same,Survival,[3]; 10 MBq,survived until the end of the study at Day 38
same,Cases in which tumors started to regrow,"[3]; 10 MBq, from about Day 20 on",50%
same,First mouse euthanized,"[3]; 10 MBq, study end Day 38",Study end
same,Last mouse euthanized,"[3]; 10 MBq, study end Day 38",study end
same,PC-3 PIP tumor cell uptake,[4],49–58%
same,Internalized fraction,[4]; PC-3 PIP,9–12%
same,Uptake in PC-3 flu tumor cells,[5],< 0.5%
same,n-octanol/PBS distribution coefficient (logD value),[6],–4.4 ± 0.1
same,Stability (intact radioligand),[7],≥ 98%
same,Last mouse euthanized,[8],40 days
same,Median Survival,[8],32 days
same,TGDI2,[8],2.1 ± 0.3
"O=C([O-])CN(CCN(CC(=O)[O-])CC(=O)[O-])CCN(CC(=O)[O-])CC(=O)[O-].[161Tb+3] [^161Tb-DPTA, ^161Tb-diethylenetriaminepentaacetic acid, reference compound]",Survival of PC-3 PIP tumor cells,[1],not affected
same,Viability of PC-3 PIP tumor cells,[2],not affected
